Test results: patent publication EP2468718A1, “Cabanillasin, a new antifungal compound, produced by entomopathogenic xenorhabdus cabanillasii” (Nosopharm, priority 2010, dated 2012)
≈ marks a conversion by molar mass, not a printed value. Where “and” joins values, the source holds several entries; their conditions need not be identical. Equal values may be shown once. Read-outs that look alike come from different tables or passages of the source.

Key:
[1] = tested on: Candida Glabrata ATCC 90030; experiment: Antifungal susceptibility testing, NCCLS M27-A2 broth microdilution (yeasts); type: cell-based; settings: Nakaseomyces glabratus, ATCC90030; for inhibition at 0.09 µg/mL / inhibition at 0.19 µg/mL / inhibition at 0.39 µg/mL / inhibition at 0.78 µg/mL / inhibition at 1.56 µg/mL / inhibition at 3.12 µg/mL / inhibition at 6.25 µg/mL / inhibition at 12.5 µg/mL / inhibition at 25 µg/mL / inhibition at 50 µg/mL: read-out: % of growth inhibition
[2] = tested on: Candida lusitaniae CBS 6936; experiment: as above; type: cell-based; settings: Clavispora lusitaniae, CBS6936; for inhibition at 0.09 µg/mL / inhibition at 0.19 µg/mL / inhibition at 0.39 µg/mL / inhibition at 0.78 µg/mL / inhibition at 1.56 µg/mL / inhibition at 3.12 µg/mL / inhibition at 6.25 µg/mL / inhibition at 12.5 µg/mL / inhibition at 25 µg/mL / inhibition at 50 µg/mL: read-out: % of growth inhibition
[3] = tested on: Aspergilus fumigatus clinical strain; experiment: Antifungal susceptibility testing, M38-A microdilution method (filamentous fungi); type: cell-based, Aspergillus fumigatus; settings: for inhibition at 0.09 µg/mL / inhibition at 0.19 µg/mL / inhibition at 0.39 µg/mL / inhibition at 0.78 µg/mL / inhibition at 1.56 µg/mL / inhibition at 3.12 µg/mL / inhibition at 6.25 µg/mL / inhibition at 12.5 µg/mL / inhibition at 25 µg/mL / inhibition at 50 µg/mL: Aspergillus fumigatus, read-out: % of growth inhibition
Method: Cabanillasin activity was tested against different fungal human pathogens: ascomycetes yeasts (Candida albicans ATCC 90029, Candida Glabrata ATCC 90030, Candida krusei ATCC 6258 and Candida lusitaniae CBS 6936), basidiomycetes yeasts (Cryptococcus neoformans clinical strain), ascomycetes filamentous fungi (Aspergilus fumigatus clinical strain, Fusarium oxysporum clinical strain) and zygomycetes filamentous fungi (Rhizopus oryzae environemental strain) by the M38-A microdilution method with RPMI 1640 medium (RPMI 1640, MOPS 160 mM, glucose 18 g/L, pH 7) as recommended in the […]. The NCCLS M27-A2 broth microdilution method (NCCLS) was used when yeasts were tested.
Yeasts and filamentous inoculi were prepared on YPD medium (yeast extract 10 g/L, peptone 10 g/L and glucose 20 g/L) and Malt medium (malt extract 20 g/L) respectively. The densities of inoculi were adjusted by dilution in RPMI 1640 broth to a value ranged from 5.10^2 to 5.10^3 CFU/mL for yeasts isolates and 5.10^3 to 5.10^4 CFU/mL for filamentous fungi. Microdilution trays (96 U-bottom shaped) containing 190 µL fungal inoculum were added with 10 µL Cabanillasin solution (final concentration ranging from 50 to 0.098 mg/L for all fungi). After inoculation of the trays, all microdilution trays were incubated at 35°C in ambient air. The culture absorbance was measured at 600 nm, 24 h and 48 h after the beginning of the experiments for the yeasts and 48 h and 72 h after the beginning of the experiments for filamentous fungi and Cryptococcus neoformans. The activity results correspond to a percentage of growth inhibition ((1-Abs600 nm culture with Cabanillasin)/ Abs600 nm culture without Cabanillasin) x 100.
The IC50 value is the concentration at which inhibition of growth is equal to 50%. MICs for Candida species were determined at 24 h and 48 h and corresponded to 100% of growth inhibition. Amphotericin B was provided as standard (final concentration ranging from 16 to 0.03 mg/L for all fungi). Experiments were done in duplicate.

[4] = tested on: PC-3 (Human prostatic carcinoma); experiment: Cytotoxicity test (MTT); type: cell-based; settings: 48 h exposure, triplicate
Method: (§1) One hundred microliters of the cell suspension of PC-3 (Human prostatic carcinoma) or hTERT HME-1 (Human normal mammary epithelium) prepared in RPMI + 10% SVF + 1% glutamine were inoculated into 96-well plates. The inoculating cell number was 3500 cells per well for PC-3 and 7500 cells per well for hTERT HME-1. The microplates were incubated at 37°C for 24h with 5% of CO2. After 24 h of culture, the medium was removed by aspiration and 100 µl of RPMI + 10% SVF + 1% glutamine with 8 concentrations of Cabanillasin (from 0.78 µg/mL to 100 µg/mL) were added to each well. Microplates were incubated at 37°C for 48 h with 5% of CO2. After 48h of culture, the medium was removed by aspiration and 100 µL of RPMI + MTT (0.5 mg/mL) were added to each wells. Microplates were inoculated at 37°C during 150 min. Next, all the medium was removed by inverting and tapping the plate and 100 µL of DMSO were added in each plate. The spectrophotometric absorbance was then measured at 550 nm. The Lethal Dose 50 correspond to DL50 = ((50-(Y2-((Y1-Y2)/(X1-X2))*X2))/ ((Y1-Y2)/(X1-X2))). […] Experiments were done in triplicate.

[5] = tested on: hTERT HME-1 (Human normal mammary epithelium); experiment: Cytotoxicity test (MTT); type: cell-based; settings: 48 h exposure, triplicate
Method: as §1

Molecule `CC(=O)NC(=N)NCCCCNC(=N)NCCCCNC(=N)NCCCCNC(=N)NCCCCN` [Cabanillasin] has an inhibition at 0.09 µg/mL ([1]; 24 h incubation) of 0%, an inhibition at 0.09 µg/mL ([1]; 48 h incubation) of 0% and an inhibition at 0.19 µg/mL ([1]; 24 h incubation) of 5.5%. It also gave an inhibition at 0.19 µg/mL ([1]; 48 h incubation) of 0%, an inhibition at 0.39 µg/mL ([1]; 24 h incubation) of 11.4% and an inhibition at 0.39 µg/mL ([1]; 48 h incubation) of 0%. The inhibition at 0.78 µg/mL ([1]; 24 h incubation) was 15.5%, the inhibition at 0.78 µg/mL ([1]; 48 h incubation) was 0% and the inhibition at 1.56 µg/mL ([1]; 24 h incubation) was 28%. The inhibition at 1.56 µg/mL ([1]; 48 h incubation) was 0%, the inhibition at 3.12 µg/mL ([1]; 24 h incubation) was 31% and the inhibition at 3.12 µg/mL ([1]; 48 h incubation) was 0%. It also gave an inhibition at 6.25 µg/mL ([1]; 24 h incubation) of 49.3%, an inhibition at 6.25 µg/mL ([1]; 48 h incubation) of 0% and an inhibition at 12.5 µg/mL ([1]; 24 h incubation) of 66.2%. The inhibition at 12.5 µg/mL ([1]; 48 h incubation) was 18.5%, the inhibition at 25 µg/mL ([1]; 24 h incubation) was 61.4% and the inhibition at 25 µg/mL ([1]; 48 h incubation) was 44%. For the same molecule, the inhibition at 50 µg/mL ([1]; 24 h incubation) was 59%, the inhibition at 50 µg/mL ([1]; 48 h incubation) was 57% and the IC50 ([1]; 24 h of incubation) was 6.25 µg/mL (≈ 12.2 µM). The inhibition at 0.09 µg/mL ([2]; 24 h incubation) was 11.7%, the inhibition at 0.09 µg/mL ([2]; 48 h incubation) was 0% and the inhibition at 0.19 µg/mL ([2]; 24 h incubation) was 14.5%. It also gave an inhibition at 0.19 µg/mL ([2]; 48 h incubation) of 0%, an inhibition at 0.39 µg/mL ([2]; 24 h incubation) of 11.5% and an inhibition at 0.39 µg/mL ([2]; 48 h incubation) of 0%. The inhibition at 0.78 µg/mL ([2]; 24 h incubation) was 20.2%, the inhibition at 0.78 µg/mL ([2]; 48 h incubation) was 0% and the inhibition at 1.56 µg/mL ([2]; 24 h incubation) was 64.8%. For the same molecule, the inhibition at 1.56 µg/mL ([2]; 48 h incubation) was 0%, the inhibition at 3.12 µg/mL ([2]; 24 h incubation) was 86.7% and the inhibition at 3.12 µg/mL ([2]; 48 h incubation) was 57%. For the same molecule, the inhibition at 6.25 µg/mL ([2]; 24 h incubation) was 94.7%, the inhibition at 6.25 µg/mL ([2]; 48 h incubation) was 74.6% and the inhibition at 12.5 µg/mL ([2]; 24 h incubation) was 97.7%. It also gave an inhibition at 12.5 µg/mL ([2]; 48 h incubation) of 86.1%, an inhibition at 25 µg/mL ([2]; 24 h incubation) of 100% and an inhibition at 25 µg/mL ([2]; 48 h incubation) of 95.9%. For the same molecule, the inhibition at 50 µg/mL ([2]; 24 h incubation) was 100%, the inhibition at 50 µg/mL ([2]; 48 h incubation) was 100% and the IC50 ([2]; 24 h of incubation) was 1.56 µg/mL (≈ 3.05 µM). For the same molecule, the MIC ([2]; 24 h of incubation, 100% of growth inhibition) was 25 µg/mL (≈ 48.9 µM), the inhibition at 0.09 µg/mL ([3]; 48 h incubation) was 0% and the inhibition at 0.09 µg/mL ([3]; 72 h incubation) was 0%. The inhibition at 0.19 µg/mL ([3]; 48 h incubation) was 0%, the inhibition at 0.19 µg/mL ([3]; 72 h incubation) was 0% and the inhibition at 0.39 µg/mL ([3]; 48 h incubation) was 0%. The inhibition at 0.39 µg/mL ([3]; 72 h incubation) was 0%, the inhibition at 0.78 µg/mL ([3]; 48 h incubation) was 0% and the inhibition at 0.78 µg/mL ([3]; 72 h incubation) was 0%. It also gave an inhibition at 1.56 µg/mL ([3]; 48 h incubation) of 0%, an inhibition at 1.56 µg/mL ([3]; 72 h incubation) of 0% and an inhibition at 3.12 µg/mL ([3]; 48 h incubation) of 0%. It also gave an inhibition at 3.12 µg/mL ([3]; 72 h incubation) of 0%, an inhibition at 6.25 µg/mL ([3]; 48 h incubation) of 0% and an inhibition at 6.25 µg/mL ([3]; 72 h incubation) of 0%. The inhibition at 12.5 µg/mL ([3]; 48 h incubation) was 0%, the inhibition at 12.5 µg/mL ([3]; 72 h incubation) was 0% and the inhibition at 25 µg/mL ([3]; 48 h incubation) was 0%. The inhibition at 25 µg/mL ([3]; 72 h incubation) was 0%, the inhibition at 50 µg/mL ([3]; 48 h incubation) was 65.2% and the inhibition at 50 µg/mL ([3]; 72 h incubation) was 0%. The activity ([3]; at 48h) was “weak activity”, the activity ([3]; at 72 h) was “no activity” and the “LD 50” value [4] was 46.83 ± 1.55 µg/mL and 46.83 µg/mL. The “LD 50” value [5] was 24.46 ± 2.51 µg/mL and 24.46 µg/mL.
